Consider two compounds from patent US20120171213A1, “METHOD OF TREATING TUMORS” (Yissum Research Development Company of the Hebrew …, priority 2009, published 2012).

One test relates to tumor cell. Conditions: both in vitro and in vivo; cited from earlier work.
For test [1], the system named is hES-cell teratoma-derived tumor cells (WA09, TE06). Nature of the test: Annexin V / PI flow cytometry for apoptosis after Taxol and Purvalanol A treatment in vitro. The format is cell-based, human. Particulars: 0.2 µM Taxol 16 hours and/or 10 µM Purvalanol A 16 hours, sequential, versus DMSO, n=5. How it is done: FACS: Annexin V and PI staining for apoptosis detection was performed using the Annexin V-PE kit (Bender MedSystems) according to the manufacturer's instructions. FACS analysis was performed using FACSCaliber system (Becton Dickinson). Analysis was performed on […] software (Becton Dickinson). Forward and side scatter plots were used to exclude debris from the histogram analysis.
The medium was then replaced with a medium containing […] Purvalanol A (Sigma), and the cells were cultured for an additional 16 hours. Other wells were treated with either Taxol for 16 hours followed by DMSO (the solution vehicle) for 16 hours or DMSO for 16 hours followed by Purvalanol A for 16 hours. Control wells were treated twice with DMSO at the same time points. Mice bearing hES-cell teratomas for 30 d were injected intraperitoneally with 7 mg/kg Taxol and 24 hours later were injected with 60 mg/kg Purvalanol A. Reagents were injected in a solution of DMSO/PEG400 at 1:1 ratio. Control mice received vehicle injections at the same time points. Mice were euthanized 18 hours after the last injection. Fresh frozen […] teratoma sections were subjected to TUNEL using the ApoAlert DNA Fragmentation Assay Kit (Clontech) according to the manufacturer's instructions.
On the technique in general: In flow cytometry, cells or beads pass a laser one at a time.

Regarding `CC(C)[C@H](CO)Nc1nc(Nc2cccc(Cl)c2)c2ncn(C(C)C)c2n1` [Purvalanol A], in the test on tumor cell, the “tumor cell death by apoptosis” value is “negligible results”. In addition, the “fold increase in apoptotic cells (Annexin V positive)” value in test [1] is listed as “no significant effect”. For the compound `CC(=O)O[C@H]1C(=O)[C@@]2(C)[C@H]([C@H](OC(=O)c3ccccc3)[C@]3(O)C[C@H](OC(=O)[C@H](O)[C@@H](NC(=O)c4ccccc4)c4ccccc4)C(C)=C1C3(C)C)[C@]1(OC(C)=O)CO[C@@H]1C[C@@H]2O` [Taxol], the “tumor cell death by apoptosis” value in the test with tumor cell is reported as “negligible results”.
